Source: US9034884B2, “Heterocyclic-substituted pyrrolopyridines and pyrrolopyrimidines as JAK inhibitors” (Incyte Corporation, priority 2010, dated 2015)

Tests used:
[1] = target: T1, JAK2 (a.a. 828-1132) catalytic domain (Homo sapiens, UniProt O60674); test: In vitro JAK kinase assay (HTRF, phosphorylation of biotinylated peptide), JAK2; assay type: biochemical; conditions: ATP 1 mM
T1 construct: JAK2 (a.a. 828-1132); His tag (N); made in house; host or cells: insect cells (baculovirus)
Description: Compounds herein were tested for inhibitory activity of JAK targets according to the following in vitro assay described in Park et al., Analytical Biochemistry 1999, 269, 94-104. The catalytic domains of human JAK1 (a.a. 837-1142) and JAK2 (a.a. 828-1132) with an N-terminal His tag were expressed using baculovirus in insect cells and purified. The catalytic activity of JAK1 and JAK2 was assayed by measuring the phosphorylation of a biotinylated peptide. The phosphorylated peptide was detected by homogenous time resolved fluorescence (HTRF). […] For the 1 mM IC50 measurements, ATP concentration in the reactions was 1 mM. Reactions were carried out at room temperature for 1 hour and then stopped with 20 μL 45 mM EDTA, 300 nM SA-APC, 6 nM Eu-Py20 in assay buffer (Perkin Elmer, Boston, Mass.). Binding to the Europium labeled antibody took place for 40 minutes and HTRF signal was measured on a Fusion plate reader (Perkin Elmer, Boston, Mass.). See Tables A and B for data related to compounds of the invention (at 1 mM). Data is indicated as ranges, wherein “+” is less than 5 nM; “++” is 5 nM to 25 nM; “+++” is greater than 25 nM to 100 nM; and “++++” is greater than 100 nM.

[2] = target: T2, human JAK1 (a.a. 837-1142) catalytic domain (Homo sapiens, UniProt P23458); test: In vitro JAK kinase assay (HTRF, phosphorylation of biotinylated peptide), JAK1; assay type: biochemical; conditions: ATP 1 mM
T2 construct: human JAK1 (a.a. 837-1142); His tag (N); made in house; host or cells: insect cells (baculovirus)
Description: Compounds herein were tested for inhibitory activity of JAK targets according to the following in vitro assay described in Park et al., Analytical Biochemistry 1999, 269, 94-104. The catalytic domains of human JAK1 (a.a. 837-1142) and JAK2 (a.a. 828-1132) with an N-terminal His tag were expressed using baculovirus in insect cells and purified. The catalytic activity of JAK1 and JAK2 was assayed by measuring the phosphorylation of a biotinylated peptide. The phosphorylated peptide was detected by homogenous time resolved fluorescence (HTRF). […] For the 1 mM IC50 measurements, ATP concentration in the reactions was 1 mM. Reactions were carried out at room temperature for 1 hour and then stopped with 20 μL 45 mM EDTA, 300 nM SA-APC, 6 nM Eu-Py20 in assay buffer (Perkin Elmer, Boston, Mass.). Binding to the Europium labeled antibody took place for 40 minutes and HTRF signal was measured on a Fusion plate reader (Perkin Elmer, Boston, Mass.). […] Data is indicated as ranges, wherein “+” is less than 5 nM; “++” is 5 nM to 25 nM; “+++” is greater than 25 nM to 100 nM; and “++++” is greater than 100 nM.

T2 sequence (P23458 849-1154): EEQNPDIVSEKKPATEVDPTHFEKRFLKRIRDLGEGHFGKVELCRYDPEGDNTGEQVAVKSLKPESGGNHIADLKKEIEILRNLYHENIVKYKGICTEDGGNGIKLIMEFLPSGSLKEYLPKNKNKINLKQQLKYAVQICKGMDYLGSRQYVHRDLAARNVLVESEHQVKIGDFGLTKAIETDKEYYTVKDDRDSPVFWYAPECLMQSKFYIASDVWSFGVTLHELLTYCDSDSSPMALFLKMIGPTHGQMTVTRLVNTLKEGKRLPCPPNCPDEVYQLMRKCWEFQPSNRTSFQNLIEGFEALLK
T1 sequence (O60674 828-1132): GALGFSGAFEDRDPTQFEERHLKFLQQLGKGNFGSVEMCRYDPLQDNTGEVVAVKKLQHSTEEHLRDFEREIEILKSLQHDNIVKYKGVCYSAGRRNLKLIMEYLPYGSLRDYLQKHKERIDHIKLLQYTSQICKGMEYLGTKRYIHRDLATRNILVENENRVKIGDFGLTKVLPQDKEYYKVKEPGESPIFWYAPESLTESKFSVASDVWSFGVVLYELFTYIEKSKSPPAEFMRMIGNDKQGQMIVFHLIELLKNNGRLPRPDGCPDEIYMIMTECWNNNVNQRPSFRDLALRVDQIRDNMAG

SMILES: N#CCC(CN1CCC(Oc2cc(F)c(F)c(F)c2)CC1)n1cc(-c2ncnc3[nH]ccc23)cn1 (stereo not shown) [Example 4, 3-[4-(7H-Pyrrolo[2,3-d]pyrimidin-4-yl)-1H-pyrazol-1-yl]-4-[4-(3,4,5-trifluorophenoxy)piperidin-1-yl]butanenitrile tris(trifluoroacetate)]
- IC50 ([1]; Table A): 25 to 100 nM
- IC50 ([2]; Table A): 5 to 25 nM

SMILES: N#CCC(CN1CCC(Oc2cc(F)cc(C(F)(F)F)c2)CC1)n1cc(-c2ncnc3[nH]ccc23)cn1 (stereo not shown) [Example 3, 4-{4-[3-Fluoro-5-(trifluoromethyl)phenoxy]piperidin-1-yl}-3-[4-(7H-pyrrolo[2,3-d]pyrimidin-4-yl)-1H-pyrazol-1-yl]butanenitrile tris(trifluoroacetate)]
- IC50 ([1]; Table A): > 100 nM
- IC50 ([2]; Table A): 5 to 25 nM

SMILES: COCCNCc1cc(F)cc(OC2CCN(CC(CC#N)n3cc(-c4ncnc5[nH]ccc45)cn3)CC2)c1 (stereo not shown) [Example 30, 4-[4-(3-fluoro-5-{[(2-methoxyethyl)amino]methyl}phenoxy)piperidin-1-yl]-3-[4-(7H-pyrrolo[2,3-d]pyrimidin-4-yl)-1H-pyrazol-1-yl]butanenitrile]
- IC50 ([1]; Table A): 25 to 100 nM
- IC50 ([2]; Table A): 5 to 25 nM

SMILES: CN(C)Cc1cc(F)cc(OC2CCN(CC(CC#N)n3cc(-c4ncnc5[nH]ccc45)cn3)CC2)c1 (single isomer, unassigned) [Example 20 Enantiomer 2, 4-(4-{3-[(Dimethylamino)methyl]-5-fluorophenoxy}piperidin-1-yl)-3-[4-(7H-pyrrolo[2,3-d]pyrimidin-4-yl)-1H-pyrazol-1-yl]butanenitrile (chiral)]
- IC50 ([1]; Table A): 5 to 25 nM

SMILES: CC(C)NC(=O)c1cc(F)cc(OC2CCN(CC(CC#N)n3cc(-c4ncnc5[nH]ccc45)cn3)CC2)c1 (stereo not shown) [Example 11, 3-[(1-{3-Cyano-2-[4-(7H-pyrrolo[2,3-d]pyrimidin-4-yl)-1H-pyrazol-1-yl]propyl}piperidin-4-yl)oxy]-5-fluoro-N-isopropylbenzamide tris(trifluoroacetate)]
- IC50 ([1]; Table A): 5 to 25 nM
- IC50 ([2]; Table A): < 5 nM

SMILES: N#CCC(CN1CCC(Oc2cc(F)cc(F)c2)CC1)n1cc(-c2ncnc3[nH]ccc23)cn1 (stereo not shown) [Example 1, 4-[4-(3,5-Difluorophenoxy)piperidin-1-yl]-3-[4-(7H-pyrrolo[2,3-d]pyrimidin-4-yl)-1H-pyrazol-1-yl]butanenitrile tris(trifluoroacetate)]
- IC50 ([1]; Table A): 25 to 100 nM
- IC50 ([2]; Table A): 5 to 25 nM

SMILES: CN(Cc1cc(F)cc(OC2CCN(CC(CC#N)n3cc(-c4ncnc5[nH]ccc45)cn3)CC2)c1)C1CC1 (stereo not shown) [Example 21, 4-[4-(3-{[cyclopropyl(methyl)amino]methyl}-5-fluorophenoxy)piperidin-1-yl]-3-[4-(7H-pyrrolo[2,3-d]pyrimidin-4-yl)-1H-pyrazol-1-yl]butanenitrile]
- IC50 ([1]; Table A): > 100 nM
- IC50 ([2]; Table A): < 5 nM

SMILES: C[C@@H]1CCCN1Cc1cc(F)cc(OC2CCN(CC(CC#N)n3cc(-c4ncnc5[nH]ccc45)cn3)CC2)c1 (stereo partly drawn) [Example 28, 4-[4-(3-fluoro-5-{[(2R)-2-methylpyrrolidin-1-yl]methyl}phenoxy)piperidin-1-yl]-3-[4-(7H-pyrrolo[2,3-d]pyrimidin-4-yl)-1H-pyrazol-1-yl]butanenitrile]
- IC50 ([1]; Table A): 25 to 100 nM
- IC50 ([2]; Table A): < 5 nM

SMILES: N#CCC(CN1CCC(Oc2cc(F)cc(C(=O)NCCC(N)=O)c2)CC1)n1cc(-c2ncnc3[nH]ccc23)cn1 (stereo not shown) [Example 14, N-(3-Amino-3-oxopropyl)-3-[1(1-{3-cyano-2-[4-(7H-pyrrolo[2,3-d]pyrimidin-4-yl)-1H-pyrazol-1-yl]propyl}piperidin-4-yl)oxy]-5-fluorobenzamide tris(trifluoroacetate)]
- IC50 ([1]; Table A): 5 to 25 nM
- IC50 ([2]; Table A): < 5 nM

SMILES: N#CCC(CN1CCC(Oc2cc(F)cc(CN3CCC(F)(F)C3)c2)CC1)n1cc(-c2ncnc3[nH]ccc23)cn1 (stereo not shown) [Example 27, 4-(4-{3-[(3,3-difluoropyrrolidin-1-yl)methyl]-5-fluorophenoxy}piperidin-1-yl)-3-[4-(7H-pyrrolo[2,3-d]pyrimidin-4-yl)-1H-pyrazol-1-yl]butanenitrile]
- IC50 ([1]; Table A): > 100 nM
- IC50 ([2]; Table A): 5 to 25 nM

SMILES: N#CCCNC(=O)c1cc(F)cc(OC2CCN(CC(CC#N)n3cc(-c4ncnc5[nH]ccc45)cn3)CC2)c1 (stereo not shown) [Example 12, N-(2-Cyanoethyl)-3-[(1-{3-cyano-2-[4-(7H-pyrrolo[2,3-d]pyrimidin-4-yl)-1H-pyrazol-1-yl]propyl}piperidin-4-yl)oxy]-5-fluorobenzamide tris(trifluoroacetate)]
- IC50 ([1]; Table A): 5 to 25 nM
- IC50 ([2]; Table A): < 5 nM

SMILES: N#CCC(CN1CCC(Oc2cc(F)cc(CN3CCCC3)c2)CC1)n1cc(-c2ncnc3[nH]ccc23)cn1 (stereo not shown) [Example 24, 4-{4-[3-fluoro-5-(pyrrolidin-1-ylmethyl)phenoxy]piperidin-1-yl}-3-[4-(7H-pyrrolo[2,3-d]pyrimidin-4-yl)-1H-pyrazol-1-yl]butanenitrile tetrakis(trifluoroacetate)]
- IC50 ([1]; Table A): 25 to 100 nM
- IC50 ([2]; Table A): < 5 nM

SMILES: N#CCC(CN1CCC(Oc2cc(F)cc(C(=O)N3CCC(F)(F)C3)c2)CC1)n1cc(-c2ncnc3[nH]ccc23)cn1 (stereo not shown) [Example 19, 4-(4-{3-[(3,3-Difluoropyrrolidin-1-yl)carbonyl]-5-fluorophenoxy}piperidin-1-yl)-3-[4-(7H-pyrrolo[2,3-d]pyrimidin-4-yl)-1H-pyrazol-1-yl]butanenitrile]
- IC50 ([1]; Table A): 5 to 25 nM
- IC50 ([2]; Table A): < 5 nM

SMILES: N#CCC(CN1CCC(Oc2cc(F)cc(F)c2F)CC1)n1cc(-c2ncnc3[nH]ccc23)cn1 (stereo not shown) [Example 5, 3-[4-(7H-Pyrrolo[2,3-d]pyrimidin-4-yl)-1H-pyrazol-1-yl]-4-[4-(2,3,5-trifluorophenoxy)piperidin-1-yl]butanenitrile tris(trifluoroacetate)]
- IC50 ([1]; Table A): 5 to 25 nM
- IC50 ([2]; Table A): < 5 nM

SMILES: CN(C)C(=O)c1cc(F)cc(OC2CCN(CC(CC#N)n3cc(-c4ncnc5[nH]ccc45)cn3)CC2)c1 (stereo not shown) [Example 8, 3-[(1-{3-Cyano-2-[4-(7H-pyrrolo[2,3-d]pyrimidin-4-yl)-1H-pyrazol-1-yl]propyl}piperidin-4-yl)oxy]-5-fluoro-N,N-dimethylbenzamide tris(trifluoroacetate)]
- IC50 ([1]; Table A): 5 to 25 nM
- IC50 ([2]; Table A): < 5 nM

SMILES: N#CCC(CN1CCC(Oc2cc(F)cc(CN3CCC3)c2)CC1)n1cc(-c2ncnc3[nH]ccc23)cn1 (stereo not shown) [Example 22]
- IC50 ([1]; Table A): 25 to 100 nM
- IC50 ([2]; Table A): < 5 nM

SMILES: N#CCC(CN1CCC(Oc2cc(F)cc(CN3CCOCC3)c2)CC1)n1cc(-c2ncnc3[nH]ccc23)cn1 (stereo not shown) [Example 26, 4-{4-[3-fluoro-5-(morpholin-4-ylmethyl)phenoxy]piperidin-1-yl}-3-[4-(7H-pyrrolo[2,3-d]pyrimidin-4-yl)-1H-pyrazol-1-yl]butanenitrile]
- IC50 ([1]; Table A): > 100 nM
- IC50 ([2]; Table A): 5 to 25 nM

SMILES: C[C@@H]1CCCN1Cc1cc(F)cc(OC2CCN(CC(CC#N)n3cc(-c4ncnc5[nH]ccc45)cn3)CC2F)c1 (single isomer, unassigned) [Example 32 diastereomer 2]
- IC50 ([1]; Table B): 5 to 25 nM
- IC50 ([2]; Table B): < 5 nM

SMILES: N#CCC(CN1CCC(Oc2cc(F)cc(CNC3CCC3)c2)CC1)n1cc(-c2ncnc3[nH]ccc23)cn1 (stereo not shown) [Example 23, 4-(4-{3-[(cyclobutylamino)methyl]-5-fluorophenoxy}piperidin-1-yl)-3-[4-(7H-pyrrolo[2,3-d]pyrimidin-4-yl)-1H-pyrazol-1-yl]butanenitrile tetrakis(trifluoroacetate)]
- IC50 ([1]; Table A): 25 to 100 nM
- IC50 ([2]; Table A): 5 to 25 nM

SMILES: CNC(=O)c1cc(F)cc(OC2CCN(CC(CC#N)n3cc(-c4ncnc5[nH]ccc45)cn3)CC2)c1 (stereo not shown) [Example 7, 3-[(1-{3-Cyano-2-[4-(7H-pyrrolo[2,3-d]pyrimidin-4-yl)-1H-pyrazol-1-yl]propyl}piperidin-4-yl)oxy]-5-fluoro-N-methylbenzamide tris(trifluoroacetate)]
- IC50 ([1]; Table A): 5 to 25 nM
- IC50 ([2]; Table A): < 5 nM

SMILES: N#CCC(CN1CCC(Oc2cc(F)cc(Cl)c2)CC1)n1cc(-c2ncnc3[nH]ccc23)cn1 (stereo not shown) [Example 2]
- IC50 ([1]; Table A): 25 to 100 nM
- IC50 ([2]; Table A): < 5 nM

SMILES: N#CCC(CN1CCC(Oc2cc(F)cc(C(=O)N3CCCCC3)c2)CC1)n1cc(-c2ncnc3[nH]ccc23)cn1 (stereo not shown) [Example 17, 4-{4-[3-Fluoro-5-(piperidin-1-ylcarbonyl)phenoxy]piperidin-1-yl}-3-[4-(7H-pyrrolo[2,3-d]pyrimidin-4-yl)-1H-pyrazol-1-yl]butanenitrile]
- IC50 ([1]; Table A): 5 to 25 nM
- IC50 ([2]; Table A): < 5 nM
